From patent US20190225650A1, “PEPTIDOMIMETIC MACROCYCLES AND USE THEREOF IN REGULATING HIF1ALPHA” (AILERON THERAPEUTICS, INC., priority 2013, published 2019)
Bridge positions count the residues as written; N and C are the ends. Square brackets hold non-standard residues; d marks the D form. Peptide text beside a SMILES is read from it. R8 = C=CCCCCCC[C@@](C)(N)C(=O)O; S5 = C=CCCC[C@](C)(N)C(=O)O; Nle = CCCC[C@H](N)C(=O)O

Target: T1, flag-tagged HIF1α (AA 786-826) / His6-tagged p300 (AA 323-423) complex (Homo sapiens, UniProt Q09472)
T1 construct: His6-tagged p300 (AA 323-423); made in house; host or cells: E. coli (pETDuet vector)
Experiment: HIF1α p300 displacement assay (TR FRET, +CHAPS)
Format: binding
Conditions: read-out: IC50 (nM) (HIF1α_p300 Displacement + CHAPS)
Description: The ability of peptides to displace HIF1α c-terminal trans-activation domain from p300-CH was measured by a TR FRET assay. A complex of flag-tagged HIF1α (AA 786-826) and His6-tagged p300 (AA 323-423) was co-expressed using pETDuet vector (EMDMillipore, Bellrica Mass.) and purified from E. coli in the presence of 0.1 mM ZnSO4. The complex was diluted to 300 nM final in complete assay media and competitor peptides were added. The complete assay media contained 150 mM NaCl (Sigma +S5150 or equivalent), 20 mM HEPES pH 7.4 (Boston Bioproducts, Ashland, Mass.; #BB-2076), 7.5 mM CHAPS (Thermo #28300 or equivalent), and 1 mM DTT. Protein and peptide were incubated at room temperature for 1 hour before the addition of anti-Flag-K and anti-6×HIS-D2 (CisBio, Bedford Mass.) HTRF reconstitution buffer (50 mM Phosphate pH 7, 0.8 Potassium Flouride, BSA 0.2%)^1 to a final concentration of 0.5 μM and 4 nM respectively. The reaction continued for an additional two hours at room temperature. The reaction was read on a TECAN F500 plate reader with settings recommended by CisBio. The ratio of donor to acceptor fluorescence was calculated. The resulting data was analyzed with Graphpad Prism 5.0. IC50 values were calculated for both proteins using the One Site Fit-LogIC50 equation and presented in the column “IC50 (nM) (HIF1α_p300 Displacement+CHAPS)” of Table 6. ^1 Cisbio USA, Bedford, Mass.; 61HISDLB (lot 007A), 61FG2KLB (024A), HTRF Buffer (62RB3RDF)

| Structure (SMILES) | IC50 [nM] |
| --- | --- |
| CC[C@H](C)[C@H](NC(=O)[C@H](Cc1ccccc1)NC(C)=O)C(=O)N[C@@H](CC(=O)O)C(=O)N[C@@H](CCC(=O)O)C(=O)N[C@]1(C)CCCCCCC=CCCC[C@@](C)(C(=O)N[C@@H](CCC(=O)O)C(=O)N[C@@H](CCSC)C(=O)NCC(=O)N[C@@H](CC(C)C)C(=O)N[C@@H](CC(=O)O)C(=O)N[C@@H](CCCNC(=N)N)C(N)=O)NC(=O)[C@H](C(C)C)NC(=O)[C@H](CC(C)C)NC(=O)[C@H](CO)NC(=O)[C@H](CCSC)NC(=O)[C@H](CC(C)C)NC(=O)[C@H](C(C)C)NC1=O [SP-189] (Ac-FIDE[R8]VLMSLV[S5]EMGLDR-NH2; staple 5-12) | > 700 |
| CCCC[C@@H]1NC(=O)[C@H](CC(C)C)NC(=O)[C@H](C(C)C)NC(=O)[C@](C)(NC(=O)[C@H](CCC(=O)O)NC(=O)[C@H](CC(=O)O)NC(=O)[C@@H](NC(=O)[C@H](Cc2ccccc2)NC(C)=O)[C@@H](C)CC)CCCCCCC=CCCC[C@@](C)(C(=O)N[C@@H](CCC(=O)O)C(=O)N[C@@H](CCSC)C(=O)NCC(N)=O)NC(=O)[C@H](C(C)C)NC(=O)[C@H](CC(C)C)NC(=O)[C@H](CO)NC1=O [SP-185] (Ac-FIDE[R8]VL[Nle]SLV[S5]EMG-NH2; staple 5-12) | > 700 |
| CCCC[C@H](NC(=O)[C@H](Cc1ccccc1)NC(=O)[C@@H](NC(=O)[C@H](CCC(=O)O)NC(=O)[C@H](CCC(=O)O)NC(=O)[C@H](CC(=O)O)NC(=O)[C@@H](NC(=O)[C@H](Cc1ccccc1)NC(C)=O)[C@@H](C)CC)C(C)C)C(=O)N[C@@]1(C)CCCC=CCCC[C@@](C)(C(=O)N[C@@H](CCCC)C(=O)N[C@@H](C)C(=O)N[C@@H](CC(C)C)C(=O)N[C@@H](CC(C)C)C(N)=O)NC(=O)[C@H]([C@@H](C)CC)NC(=O)[C@H](C(C)C)NC(=O)[C@H](CC(C)C)NC1=O [SP-242] (Ac-FIDEEVF[Nle][S5]LVI[S5][Nle]ALL-NH2; staple 9-13) | ≤ 200 |
| CCCC[C@H](NC(=O)[C@H](CCC(=O)O)NC(=O)[C@@H](NC(=O)[C@@H](NC(=O)[C@H](CC(C)C)NC(=O)[C@]1(C)CCCC=CCCC[C@](C)(NC(=O)[C@H](CCC(=O)O)NC(=O)[C@H](CC(=O)O)NC(=O)[C@@H](NC(=O)[C@H](Cc2ccccc2)NC(C)=O)[C@@H](C)CC)C(=O)N[C@@H](C(C)C)C(=O)N[C@@H](CC(C)C)C(=O)N[C@@H](CCCC)C(=O)N1)C(C)C)[C@@H](C)CC)C(=O)N[C@@H](C)C(=O)N[C@@H](CC(C)C)C(=O)N[C@@H](CCCCN)C(N)=O [SP-132] (Ac-FIDE[S5]VL[Nle][S5]LVIE[Nle]ALK-NH2; staple 5-9) | > 700 |
| CCCC[C@H](NC(=O)[C@H](CCC(=O)O)NC(=O)[C@@H](NC(=O)[C@]1(C)CCCC=CCCC[C@](C)(NC(=O)[C@@H](NC(=O)[C@H](CCC(=O)O)NC(=O)[C@H](CCC(=O)O)NC(=O)[C@H](CC(=O)O)NC(=O)[C@@H](NC(=O)[C@H](CC(N)=O)NC(=O)[C@@H](NC(=O)[C@H](CCC(N)=O)NC(=O)[C@]2(C)CCCC=CCCC[C@](C)(NC(=O)[C@H](CC(C)C)NC(=O)[C@H](CCC(=O)O)NC(=O)[C@H](CCC(=O)O)NC(=O)CNC(=O)[C@H](CCC(N)=O)NC(=O)[C@H](CC(C)C)NC(=O)[C@H](CC(C)C)NC(C)=O)C(=O)N[C@@H](CCCNC(=N)N)C(=O)N[C@@H](C)C(=O)N[C@@H](CC(C)C)C(=O)N2)C(C)C)[C@@H](C)CC)C(C)C)C(=O)N[C@@H](CCCC)C(=O)N[C@@H](CO)C(=O)N[C@@H](CC(C)C)C(=O)N1)[C@@H](C)CC)C(=O)NCC(N)=O [SP-304] (Ac-LLQGEEL[S5]RAL[S5]QVNIDEEV[S5][Nle]SL[S5]IE[Nle]G-NH2; staple 8-12, 21-25) | > 700 |
| CCCC[C@H](NC(=O)[C@H](CCC(=O)O)NC(=O)[C@@H](NC(=O)[C@@H](NC(=O)[C@H](CC(C)C)NC(=O)[C@H](CO)NC(=O)[C@H](CCCC)NC(=O)[C@H](CC(C)C)NC(=O)[C@@H](NC(=O)[C@H](CCC(=O)O)NC(=O)[C@H](CCC(=O)O)NC(=O)[C@H](CC(=O)O)NC(=O)[C@@H](NC(=O)[C@H](CC(N)=O)NC(=O)[C@@H](NC(=O)[C@H](CCC(N)=O)NC(=O)[C@H](CC(=O)O)NC(=O)[C@H](CC(C)C)NC(=O)[C@H](C)NC(=O)[C@H](CCCNC(=N)N)NC(=O)[C@H](CC(C)C)NC(=O)[C@H](CC(C)C)NC(=O)[C@H](CCC(=O)O)NC(=O)[C@H](CCC(=O)O)NC(=O)CNC(=O)[C@H](CCC(N)=O)NC(=O)[C@H](CC(C)C)NC(=O)[C@H](CC(C)C)NC(C)=O)C(C)C)[C@@H](C)CC)C(C)C)C(C)C)[C@@H](C)CC)C(N)=O [SP-333] (Ac-LLQGEELLRALDQVNIDEEVL[Nle]SLVIE[Nle]-NH2) | 400 to 700 |
| CCCC[C@H](NC(=O)[C@H](CCC(=O)O)NC(=O)[C@]1(C)CCCC=CCCCCCC[C@@](C)(NC(=O)[C@H](C)NC(=O)[C@H](C)NC(=O)[C@@H](NC(=O)[C@H](CC(N)=O)NC(=O)[C@@H](NC(=O)[C@]2(C)CCCC=CCCCCCC[C@@](C)(NC(=O)[C@H](C)NC(=O)CNC(=O)[C@H](CCC(N)=O)NC(=O)[C@H](CC(C)C)NC(=O)[C@H](CC(C)C)NC(C)=O)C(=O)N[C@@H](CC(C)C)C(=O)N[C@@H](CC(C)C)C(=O)N[C@@H](CCCNC(=N)N)C(=O)N[C@@H](C)C(=O)N[C@@H](CC(C)C)C(=O)N[C@@H](C)C(=O)N2)C(C)C)[C@@H](C)CC)C(=O)N[C@@H](C(C)C)C(=O)N[C@@H](CC(C)C)C(=O)N[C@@H](CCCC)C(=O)N[C@@H](CO)C(=O)N[C@@H](CC(C)C)C(=O)N[C@@H](C(C)C)C(=O)N1)C(N)=O [SP-356] (Ac-LLQGA[R8]LLRALA[S5]VNIAA[R8]VL[Nle]SLV[S5]E[Nle]-NH2; staple 6-13, 19-26) | > 700 |
| CCCC[C@H](NC(=O)[C@H](CCC(=O)O)NC(=O)[C@]1(C)CCCC=CCCCCCC[C@@](C)(NC(=O)[C@H](CCC(=O)O)NC(=O)[C@H](CC(=O)O)NC(=O)[C@@H](NC(=O)[C@H](Cc2ccccc2)NC(C)=O)[C@@H](C)CC)C(=O)N[C@@H](C(C)C)C(=O)N[C@@H](CC(C)C)C(=O)N[C@@H](CCSC)C(=O)N[C@@H](CO)C(=O)N[C@@H](CC(C)C)C(=O)N[C@@H](C(C)C)C(=O)N1)C(=O)NCC(N)=O [SP-186] (Ac-FIDE[R8]VLMSLV[S5]E[Nle]G-NH2; staple 5-12) | > 700 |
| CC[C@H](C)[C@H](NC(=O)[C@H](Cc1ccccc1)NC(C)=O)C(=O)N[C@@H](CC(=O)O)C(=O)N[C@@H](CCC(=O)O)C(=O)N[C@]1(C)CCCCCCC=CCCC[C@@](C)(C(=O)N[C@@H](CCC(=O)O)C(=O)N[C@@H](CCSC)C(=O)NCC(N)=O)NC(=O)[C@H](C(C)C)NC(=O)[C@H](CC(C)C)NC(=O)[C@H](CO)NC(=O)[C@H](C)NC(=O)[C@H](CC(C)C)NC(=O)[C@H](C(C)C)NC1=O [SP-184] (Ac-FIDE[R8]VLASLV[S5]EMG-NH2; staple 5-12) | > 700 |
| CCCC[C@@H]1NC(=O)[C@](C)(NC(=O)[C@@H](NC(=O)[C@H](CCC(=O)O)NC(=O)[C@H](CCC(=O)O)NC(=O)[C@H](CC(=O)O)NC(=O)[C@@H](NC(=O)[C@H](CC(N)=O)NC(=O)[C@@H](NC(=O)[C@H](CCC(N)=O)NC(=O)[C@]2(C)CCCC=CCCC[C@](C)(NC(=O)[C@H](CC(C)C)NC(=O)[C@H](CCC(=O)O)NC(=O)[C@H](CCC(=O)O)NC(=O)CNC(=O)[C@H](CCC(N)=O)NC(=O)[C@H](CC(C)C)NC(=O)[C@H](CC(C)C)NC(C)=O)C(=O)N[C@@H](CCCNC(=N)N)C(=O)N[C@@H](C)C(=O)N[C@@H](CC(C)C)C(=O)N2)C(C)C)[C@@H](C)CC)C(C)C)CCCCCCC=CCCC[C@@](C)(C(=O)NCC(N)=O)NC(=O)[C@H](CCC(=O)O)NC(=O)[C@H]([C@@H](C)CC)NC(=O)[C@H](C(C)C)NC(=O)[C@H](CC(C)C)NC(=O)[C@H](CO)NC1=O [SP-316] (Ac-LLQGEEL[S5]RAL[S5]QVNIDEEV[R8][Nle]SLVIE[S5]G-NH2; staple 8-12, 21-28) | > 700 |
| CC[C@H](C)[C@H](NC(=O)[C@H](Cc1ccccc1)NC(C)=O)C(=O)N[C@@H](CC(=O)O)C(=O)N[C@@H](CCC(=O)O)C(=O)N[C@]1(C)CCCCCCC=CCCC[C@@](C)(C(=O)N[C@@H](CCC(=O)O)C(=O)N[C@@H](CCSC)C(=O)NCC(=O)N[C@@H](CC(C)C)C(=O)N[C@@H](CC(=O)O)C(N)=O)NC(=O)[C@H](C(C)C)NC(=O)[C@H](CC(C)C)NC(=O)[C@H](CO)NC(=O)[C@H](CCSC)NC(=O)[C@H](CC(C)C)NC(=O)[C@H](C(C)C)NC1=O [SP-188] (Ac-FIDE[R8]VLMSLV[S5]EMGLD-NH2; staple 5-12) | > 700 |
| CSCC[C@H](NC(=O)[C@H](CO)NC(=O)[C@]1(C)CCCC=CCCCCCC[C@@](C)(NC(=O)[C@H](CCC(=O)O)NC(=O)[C@@H](NC(=O)[C@H](CC(C)C)NC(C)=O)[C@@H](C)O)C(=O)N[C@@H](C(C)C)C(=O)N[C@@H](CC(C)C)C(=O)N[C@@H](CCSC)C(=O)N[C@@H](CO)C(=O)N[C@@H](CC(C)C)C(=O)N[C@@H](C(C)C)C(=O)N1)C(=O)N[C@@H](C)C(N)=O [SP-180] (Ac-LTE[R8]VLMSLV[S5]SMA-NH2; staple 4-11) | > 700 |
